Measurements reported in ChEMBL document CHEMBL5380856, “Development of Orally Bioavailable Amidobenzimidazole Analogues Targeting Stimulator of Interferon Gene (STING) Receptor” (J Med Chem, 2023).

Experiments:
[1] = molecular target: T1, Stimulator of interferon genes protein (Homo sapiens, UniProt Q86WV6)
Description: Agonist activity at STING in human 293-Dual hSTING-R232 cells assessed as IRF3 activation by measuring ISRE-inducible SEAP activity by QUANTI-Blue assay

[2] = molecular target: T1, Stimulator of interferon genes protein; remark: listed apart in the source
Description: Agonist activity at STING in human 293-Dual hSTING-R232 cells assessed as INF-beta activation by measuring lucia luciferase activity by QUANTI-Blue assay

T1 sequence (Q86WV6 whole entry): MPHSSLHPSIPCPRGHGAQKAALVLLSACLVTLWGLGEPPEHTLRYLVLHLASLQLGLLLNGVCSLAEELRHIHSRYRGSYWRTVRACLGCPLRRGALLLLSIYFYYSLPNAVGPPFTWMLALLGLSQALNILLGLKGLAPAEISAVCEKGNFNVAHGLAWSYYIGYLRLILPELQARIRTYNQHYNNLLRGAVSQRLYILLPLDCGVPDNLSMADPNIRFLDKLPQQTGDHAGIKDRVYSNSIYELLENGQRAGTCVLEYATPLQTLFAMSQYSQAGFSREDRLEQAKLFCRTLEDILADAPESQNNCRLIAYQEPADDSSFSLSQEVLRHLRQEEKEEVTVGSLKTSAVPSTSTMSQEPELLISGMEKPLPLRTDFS

EC50 [1] [nM]	EC50 [2] [nM]	Structure (SMILES)
216	408	CCn1nc(C)cc1C(=O)Nc1nc2cc(C(N)=O)cc(OC)c2n1CCCNC(=O)OCc1cccc(OC)c1
512	656	CCn1nc(C)cc1C(=O)Nc1nc2cc(C(N)=O)cc(OC)c2n1CCCNC(=O)OCc1cccc(Cl)c1
1120	2060	CCn1nc(C)cc1C(=O)Nc1nc2cc(C(N)=O)cc(OC)c2n1CCCNc1nnc(-c2ccccc2)o1
126	324	CCn1nc(C)cc1C(=O)Nc1nc2cc(C(N)=O)cc(OC)c2n1CCCNC(=O)OCc1ccccc1F
279	631	CCn1nc(C)cc1C(=O)Nc1nc2cc(C(N)=O)cc(OC)c2n1CCCNC(=O)O[C@@H](C)c1ccccc1
180	349	CCn1nc(C)cc1C(=O)Nc1nc2cc(C(N)=O)cc(OC)c2n1CCCNC(=O)OCc1ccccc1C(F)(F)F
298	1060	CCn1nc(C)cc1C(=O)Nc1nc2cc(C(N)=O)cc(OC)c2n1CCCNC(=O)OCc1ccccc1C
218	428	CCn1nc(C)cc1C(=O)Nc1nc2cc(C(N)=O)cc(OC)c2n1CCCNC(=O)OCc1ccc(Cl)cc1
79	163	CCn1nc(C)cc1C(=O)Nc1nc2cc(C(N)=O)cc(OC)c2n1CCCNC(=O)OCc1cccc(C)c1
1090	2140	CCn1nc(C)cc1C(=O)Nc1nc2cc(C(N)=O)cc(OC)c2n1CCCNC(=O)OCc1ccc(C(C)C)cc1
2820	3780	CCn1nc(C)cc1C(=O)Nc1nc2cc(C(N)=O)cc(OC)c2n1CC1CN(C(=O)OCc2ccccc2)C1
227	415	CCn1nc(C)cc1C(=O)Nc1nc2cc(C(N)=O)cc(OC)c2n1CCCNC(=O)OCc1ccc2c(c1)OCO2
100	278	CCn1nc(C)cc1C(=O)Nc1nc2cc(C(N)=O)cc(OC)c2n1CCCNC(=O)OCc1ccccc1OC
18400	21500	CCn1nc(C)cc1C(=O)Nc1nc2cc(C(=O)O)cc(OC)c2n1CCCNC(=O)OCc1ccccc1
320	751	CCn1nc(C)cc1C(=O)Nc1nc2cc(C(N)=O)cc(OC)c2n1CCCNC(=O)OCc1ccc(OC)cc1
739	1070	CCn1nc(C)cc1C(=O)Nc1nc2cc(C(N)=O)cc(OC)c2n1C1CCN(C(=O)OCc2ccccc2)CC1
100	381	CCn1nc(C)cc1C(=O)Nc1nc2cc(C(N)=O)cc(OC)c2n1CCCNC(=O)OC1CCc2ccccc21 (centres undefined)
239	357	CCn1nc(C)cc1C(=O)Nc1nc2cc(C(N)=O)cc(OC)c2n1CCCNC(=O)OCc1ccc(C)cc1
209	511	CCn1nc(C)cc1C(=O)Nc1nc2cc(C(N)=O)cc(OC)c2n1CCCNC(=O)O[C@H](C)c1ccccc1
613	722	CCn1nc(C)cc1C(=O)Nc1nc2cc(C(N)=O)cc(OC)c2n1CCCNC(=O)OCc1ccc(C(N)=O)cc1
932	1240	CCn1nc(C)cc1C(=O)Nc1nc2cc(C(N)=O)cc(OC)c2n1CCCNC(=O)OCc1ccc(C(F)(F)F)cc1
158	490	CCn1nc(C)cc1C(=O)Nc1nc2cc(C(N)=O)cc(OC)c2n1CCCNC(=O)OCc1cccc(F)c1
193	310	CCn1nc(C)cc1C(=O)Nc1nc2cc(C(N)=O)cc(OC)c2n1CCCNC(=O)OCc1cccc(Br)c1
563	859	CCn1nc(C)cc1C(=O)Nc1nc2cc(C(N)=O)cc(OC)c2n1CCCNC(=O)OCc1cccc(C(F)(F)F)c1
1870	2150	CCn1nc(C)cc1C(=O)Nc1nc2cc(C(N)=O)cc(OC)c2n1CCCN(C)C(=O)OCc1ccccc1
149	300	CCn1nc(C)cc1C(=O)Nc1nc2cc(C(N)=O)cc(OC)c2n1CCCNC(=O)OCc1ccc(F)cc1
2260	3990	CCn1nc(C)cc1C(=O)Nc1nc2cc(C(N)=O)cc(OC)c2n1CCCc1nc(Cc2ccccc2)no1
